In EP3720857B1, “2-OXO-5H-CHROMENO[4,3-B]PYRIDINES FOR USE IN THE TREATMENT OF HEPATITIS B” (Galapagos NV, priority 2017, dated 2019):

test system: hepatitis virus B (HBV) infection; experiment: HepG2 NTCP assay (HBcAg staining as marker of HBV infection); type: cell-based; settings: HepG2-NTCP cells infected with HBV, HBV core antigen (HBcAg) as marker of infection
Description: The principle of the hepG2-NTCP assay is to measure the effect of a test compound on the inhibition of the hepatitis virus B (HBV) infection compared to a reference compound. To be able to infect the hepatocellular carcinoma cells (HepG2) with HBV, HepG2 cells were stably transfected with the Na+-taurocholate co-transporting polypeptide (NTCP) receptor, also referred to as Sodium/bile acid cotransporter (SLC10A1), which is necessary for HBV infection. In this assay the HBV core antigen (HBcAg) is used as a marker of HBV infection. Nuclei count is used as an indication for compound toxicity.
On day one, HepG2-NTCP cells ((Ni et al., 2014)) are seeded at 5000 cells in 50 µL per well in assay medium (DMEM high glucose supplemented with 10% non-heat inactivated (non HI) fetal bovine serum (FBS), 1% P/S, 1% L-glutamine and 1% MEM NEAA) in 384 well plate and incubated at 37°C, 5% CO2 overnight.
Compounds are prepared as 10 point serial dilutions using 1/3 dilution steps in 100% DMSO starting from 10 mM highest concentration, unless otherwise requested for very potent compounds, which started from 5mM or 1mM stock. Compounds are further diluted 1/500 in assay medium.
A negative control (vehicle: 24 wells with 0.2% DMSO) and positive control (24 wells with 100nM Myrcludex B (Cas no.: 406461-66-3), 0.2% DMSO and in 10 point DR) are included in the experiments.
On the second day, 40µl medium is removed from the cells with the plate washer (Select 405 microplate washer, Biotek). 15 µL of diluted compound series is transferred to the assay plate and cells are infected with 15 µL of HBV mix (HBV virus, 4%PEG, 1%DMSO in assay medium). The infection is performed in assay medium containing final concentration of 1% DMSO. The assay plate is incubated at 37°C, 5% CO2 overnight.
The next day, 30µl compound and HBV mix are removed from the assay plate with the plate washer and 30 µL of compound series diluted 1/500 in assay medium containing final concentration of 2.5% DMSO is added to the cell assay plate. The assay plate is incubated at 37°C, 5% CO2 for 5 days.
After 5 days of incubation, supernatant is removed from the cells with the plate washer. Cells are fixed with 50 µL of 3.7% formaldehyde added with the Well mate (Matrix technologies) and incubated for 30 min at room temperature. After fixation, cells are washed four times with phosphate buffer saline (1xPBS, 137mM NaCl, 10mM na2HPO4, 2.7mM KCl, 1.8mM KH2PO4 at pH7.4). The cells are finally subjected to HBc staining.
First, the assay plate is blocked with blocking buffer (2%FBS, 3% BSA, 0.2% TritonX100 in PBS) for 1 h at room temperature (optional to block overnight at 4°C).
After 4 washes of PBST (1XPBS + 0.05% Tween) with the plate washer, the assay plate is incubated with 30 µL diluted primary antibody (1/700 Rabbit anti-HBV core antigen, Dako, B0586 or 1/350 Rabbit anti HBV core antigen, Invitrogen, PA516368) in blocking buffer and incubated for 90 min at room temperature.
After 4 washes of PBST with the plate washer, the assay plate is incubated with 50 µL of secondary antibody (Donkey-anti-rabbit Alexa 488 antibody, Lifetechnologies A21206) 1/500 diluted in blocking buffer and incubated for 60 min at room temperature and in the dark.
The assay plate is washed 4 times with PBST on the plate washer and incubated with 50µL of DAPI (Sigma D9542, stock 5mg/mL) 1/10000 diluted in PBS for 15-30 min at room temperature and in the dark. The assay plate is now ready for read out on the InCell Analyzer 2200 (GE Healthcare).
Raw data are generated following read-out performed on InCell 2200 and are imported into the galapagos LIMS for automated calculation of percentage inhibition (PIN) and toxicity by nuclei count, using the control wells mentioned above, and creation of Dose Response curves. Table V. Hepg2 NTCP assay activity of illustrative compounds of the invention

Which IC50 does the source give for `[2H]C([2H])([2H])Oc1cc2c(cc1OC)-c1c(cc(C(=O)O)c(=O)n1C1CC1)C(C(C)C)O2` (stereo not drawn) [Compound 20, 1-cyclopropyl-5-isopropyl-9-methoxy-2-oxo-8-(trideuteriomethoxy)-5H-chromeno[4,3-b]pyridine-3-carboxylic acid] here?
The IC50 was 1 to 20 nM.

Which IC50 does the source give for `COCCCOc1cc2c(cc1F)-c1c(cc(C(=O)O)c(=O)n1C1CC1)C(C1(C)COC1)O2` (stereo not drawn) [Compound 49, 1-cyclopropyl-9-fluoro-8-(3-methoxypropoxy) -5-(3-methyloxetan-3-yl)-2-oxo-5H-chromeno[4,3-b]pyridine-3-carboxylic acid] here?
Its IC50 is 0.001 to 1 nM.

Which IC50 does the source give for `COCCCOc1ccc2c(c1Cl)OC(C(C)C)c1cc(C(=O)O)c(=O)n(C3CC3)c1-2` (stereo not drawn) [Compound 8, 7-chloro-1-cyclopropyl-5-isopropyl-8-(3-methoxypropoxy) -2-oxo-5H-chromeno[4,3-b]pyridine-3-carboxylic acid] here?
Its IC50 is 1 to 20 nM.

With `COCCCOc1cc2c(cc1OC)-c1c(cc(C(=O)O)c(=O)n1C1CC1)C(C(C)C)O2` (stereo not drawn) [Compound 10, 1-cyclopropyl-5-isopropyl-9-methoxy-8-(3-methoxypropoxy) -2-oxo-5H-chromeno[4,3-b]pyridine-3-carboxylic acid] as the compound, how does the IC50 read?
The IC50 was 1 to 20 nM.

How did the IC50 turn out when `COc1cc2c(cc1Cl)-c1c(cc(C(=O)O)c(=O)n1C1CC1)[C@@H](C1(C)COC1)O2` [Compound 66, (5S)-9-chloro-1-cyclopropyl-8-methoxy-5-(3-methyloxetan-3-yl)-2-oxo-5H-chromeno[4,3-b]pyridine-3-carboxylic acid] was run?
Its IC50 is 1 to 20 nM.

With `CCC1Oc2cc(OC)c(OC)cc2-c2c1cc(C(=O)O)c(=O)n2C1CC1` (stereo not drawn) [Compound 15, 1-cyclopropyl-5-ethyl-8,9-dimethoxy-2-oxo-5H-chromeno[4,3-b]pyridine-3-carboxylic acid] as the compound, how does the IC50 read?
The IC50 was 20 to 100 nM.

For `COc1cc2c(cc1Cl)-c1c(cc(C(=O)O)c(=O)n1C1CC1)C(C1COC1)O2` (stereo not drawn) [Compound 21, 9-chloro-1-cyclopropyl-8-methoxy-5-(oxetan-3-yl)-2-oxo-5H-chromeno[4,3-b]pyridine-3-carboxylic acid], which IC50 is on record?
The IC50 was 1 to 20 nM.

With `CC1(C2Oc3cc(OC[C@H]4COCCO4)c(Cl)cc3-c3c2cc(C(=O)O)c(=O)n3C2CC2)COC1` (stereo partly drawn) [Compound 69, 9-chloro-1-cyclopropyl-8-[[(2R)-1,4-dioxan-2-yl]methoxy]-5-(3-methyloxetan-3-yl)-2-oxo-5H-chromeno[4,3-b]pyridine-3-carboxylic acid] as the compound, how does the IC50 read?
The IC50 was 0.001 to 1 nM.

Which IC50 does the source give for `COCCCOc1cc2c(cc1Cl)-c1c(cc(C(=O)O)c(=O)n1C1CC1)C(C1COC1)O2` (stereo not drawn) [Compound 13, 9-chloro-1-cyclopropyl-8-(3-methoxypropoxy) -5-(oxetan-3-yl)-2-oxo-5H-chromeno[4,3-b] pyridine-3-carboxylic acid] here?
Its IC50 is 0.001 to 1 nM.

For `COc1cc2c(cc1Cl)-c1c(cc(C(=O)O)c(=O)n1C1CC1)C(C1(C)COC1)O2` (stereo not drawn) [Compound 55, 9-chloro-1-cyclopropyl-8-methoxy-5-(3-methyloxetan-3-yl)-2-oxo-5H-chromeno[4,3-b]pyridine-3-carboxylic acid], which IC50 is on record?
Its IC50 is 0.001 to 1 nM.

With `COc1cc2c(cc1Cl)-c1c(cc(C(=O)O)c(=O)n1C1CC1)[C@H](C1(C)COC1)O2` [Compound 67, (5R)-9-chloro-1-cyclopropyl-8-methoxy-5-(3-methyloxetan-3-yl)-2-oxo-5H-chromeno[4,3-b]pyridine-3-carboxylic acid] as the compound, how does the IC50 read?
Its IC50 is 0.001 to 1 nM.

With `[2H]C([2H])([2H])Oc1cc2c(cc1Cl)-c1c(cc(C(=O)O)c(=O)n1C1CC1)C(C1(C)COC1)O2` (stereo not drawn) [Compound 58, 9-chloro-1-cyclopropyl-5-(3-methyloxetan-3-yl)-2-oxo-8-(trideuteriomethoxy)-5H-chromeno[4,3-b]pyridine-3-carboxylic acid] as the compound, how does the IC50 read?
Its IC50 is 0.001 to 1 nM.

`COCCCOc1cc2c(cc1Cl)-c1c(cc(C(=O)O)c(=O)n1C1CC1)C(C)(C)O2` [Compound 14, 9-chloro-1-cyclopropyl-8-(3-methoxypropoxy) -5,5-dimethyl-2-oxo-chromeno [4,3-b]pyridine-3-carboxylic acid] was tested. Which IC50 did it give?
The IC50 was 1 to 20 nM.

For `COCCCOc1cc2c(cc1C(F)(F)F)-c1c(cc(C(=O)O)c(=O)n1C1CC1)C(C(C)C)O2` (stereo not drawn) [Compound 62, 1-cyclopropyl-5-isopropyl-8-(3-methoxypropoxy) -2-oxo-9-(trifluoromethyl)-5H-chromeno[4,3-b]pyridine-3-carboxylic acid], which IC50 is on record?
The IC50 was 0.001 to 1 nM.

For `CC(C)C1Oc2cc(OC[C@H]3COCCO3)c(Cl)cc2-c2c1cc(C(=O)O)c(=O)n2C1CC1` (stereo partly drawn) [Compound 51, 9-chloro-1-cyclopropyl-8-[[(2R)-1,4-dioxan-2-yl]methoxy]-5-isopropyl-2-oxo-5H-chromeno[4,3-b]pyridine-3-carboxylic acid], which IC50 is on record?
Its IC50 is 0.001 to 1 nM.

For `CC(C)C1Oc2cc(OC[C@@H]3COCCO3)c(Cl)cc2-c2c1cc(C(=O)O)c(=O)n2C1CC1` (stereo partly drawn) [Compound 50, 9-chloro-1-cyclopropyl-8-[[(2S)-1,4-dioxan-2-yl]methoxy]-5-isopropyl-2-oxo-5H-chromeno[4,3-b]pyridine-3-carboxylic acid], which IC50 is on record?
Its IC50 is 0.001 to 1 nM.

With `COc1cc2c(cc1OCC1CN(C)C(=O)O1)OC(C(C)C)c1cc(C(=O)O)c(=O)n(C3CC3)c1-2` (stereo not drawn) [Compound 29, 1-cyclopropyl-5-isopropyl-9-methoxy-8-[(3-methyl-2-oxooxazolidin-5-yl)methoxy]-2-oxo-5H-chromeno[4,3-b]pyridine-3-carboxylic acid] as the compound, how does the IC50 read?
Its IC50 is 1 to 20 nM.

`CCCOc1cc2c(cc1OC)-c1c(cc(C(=O)O)c(=O)n1C1CC1)C(C(C)C)O2` (stereo not drawn) [Compound 40, 1-cyclopropyl-5-isopropyl-9-methoxy-2-oxo-8-propoxy-5H-chromeno[4,3-b]pyridine-3-carboxylic acid] was tested. Which IC50 did it give?
Its IC50 is 1 to 20 nM.

How did the IC50 turn out when `CCOc1cc2c(cc1Cl)-c1c(cc(C(=O)O)c(=O)n1C1CC1)C(C1(C)COC1)O2` (stereo not drawn) [Compound 56, 9-chloro-1-cyclopropyl-8-ethoxy-5-(3-methyloxetan-3-yl)-2-oxo-5H-chromeno[4,3-b]pyridine-3-carboxylic acid] was run?
Its IC50 is 0.001 to 1 nM.

With `COCCCOc1cc2c(cc1F)-c1c(cc(C(=O)O)c(=O)n1C1CC1)[C@@H](C(C)C)O2` [Compound 45, (5R)-1-cyclopropyl-9-fluoro-5-isopropyl-8-(3-methoxypropoxy)-2-oxo-5H-chromeno[4,3-b]pyridine-3-carboxylic acid] as the compound, how does the IC50 read?
Its IC50 is over 100 nM.

How did the IC50 turn out when `COc1cc2c(cc1OCC1COC1)OC(C(C)C)c1cc(C(=O)O)c(=O)n(C3CC3)c1-2` (stereo not drawn) [Compound 34, 1-cyclopropyl-5-isopropyl-9-methoxy-8-(oxetan-3-ylmethoxy)-2-oxo-5H-chromeno[4,3-b]pyridine-3-carboxylic acid] was run?
Its IC50 is 1 to 20 nM.

How did the IC50 turn out when `COCCCOc1cc2c(cc1Cl)-c1c(cc(C(=O)O)c(=O)n1C1CC1)C(C1(C#N)CC1)O2` (stereo not drawn) [Compound 22, 9-chloro-5-(1-cyanocyclopropyl)-1-cyclopropyl-8-(3-methoxypropoxy) -2-oxo-5H-chromeno[4,3-b]pyridine-3-carboxylic acid] was run?
The IC50 was 0.001 to 1 nM.

How did the IC50 turn out when `COCCCOc1cc2c(cc1C#N)-c1c(cc(C(=O)O)c(=O)n1C1CC1)C(C(C)C)O2` (stereo not drawn) [Compound 24, 9-cyano-1-cyclopropyl-5-isopropyl-8-(3-methoxypropoxy) -2-oxo-5H-chromeno[4,3-b]pyridine-3-carboxylic acid] was run?
The IC50 was 0.001 to 1 nM.

With `CCC1Oc2cc(OCCCOC)c(Cl)cc2-c2c1cc(C(=O)O)c(=O)n2C1CC1` (stereo not drawn) [Compound 11, 9-chloro-1-cyclopropyl-5-ethyl-8-(3-methoxypropoxy) -2-oxo-5H-chromeno[4,3-b]pyridine-3-carboxylic acid] as the compound, how does the IC50 read?
Its IC50 is 0.001 to 1 nM.
